Laboratory results as given in ChEMBL document CHEMBL1201862, “PubChem BioAssay data set” (2004).
Active and inactive are the calls of the source.

Assays:
[1] = test system: Streptococcus sp. 'group A'; test: Streptococcus pyogenes SK(-)GAS viability under kanamycin – luminescence, BacTiterGlo, confirmation, counter-screen for streptokinase expression inhibitor project, dose response (AID 1900); format: functional, organism-based
Vero = test: mammalian cell viability reduction – secondary assay, cytotoxicity control for West Nile virus antiviral project, dose response (AID 1650); format: functional; conditions: Chlorocebus sabaeus
Streptokinase A = target: T1, Streptokinase A (Streptococcus pyogenes serotype M1, UniProt P10520); test: viability-normalized secreted streptokinase activity reduction – plasminogen activation absorbance, OD405, dose response (AID 1914); format: functional, Streptococcus pyogenes M1 GAS;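 note: secreted streptokinase activity via plasminogen activation per viability signal from cell pellet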
T1 sequence (P10520 whole entry): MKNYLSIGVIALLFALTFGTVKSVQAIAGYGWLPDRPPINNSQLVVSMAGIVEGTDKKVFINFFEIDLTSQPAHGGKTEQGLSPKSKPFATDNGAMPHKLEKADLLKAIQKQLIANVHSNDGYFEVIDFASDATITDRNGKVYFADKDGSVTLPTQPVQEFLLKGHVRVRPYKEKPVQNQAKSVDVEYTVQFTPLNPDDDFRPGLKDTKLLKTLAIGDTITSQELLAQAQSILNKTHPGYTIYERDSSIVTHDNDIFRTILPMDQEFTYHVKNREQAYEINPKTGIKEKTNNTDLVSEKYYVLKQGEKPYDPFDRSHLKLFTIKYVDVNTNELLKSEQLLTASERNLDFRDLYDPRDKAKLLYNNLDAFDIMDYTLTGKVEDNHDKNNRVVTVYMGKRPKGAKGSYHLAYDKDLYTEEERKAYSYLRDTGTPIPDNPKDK

Streptococcus = test: GAS UMAA2166 growth inhibition – luminescence, BacTiterGlo, counter-screen for streptokinase expression inhibitor project, dose response (AID 1915); format: functional, organism-based;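 note: potency for reduction of bacterial viability or growth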
[2] = target: Glyceraldehyde-3-phosphate dehydrogenase (Homo sapiens, UniProt P04406)
Glyceraldehyde-3-phosphate dehydrogenase, sequence (P04406 whole entry): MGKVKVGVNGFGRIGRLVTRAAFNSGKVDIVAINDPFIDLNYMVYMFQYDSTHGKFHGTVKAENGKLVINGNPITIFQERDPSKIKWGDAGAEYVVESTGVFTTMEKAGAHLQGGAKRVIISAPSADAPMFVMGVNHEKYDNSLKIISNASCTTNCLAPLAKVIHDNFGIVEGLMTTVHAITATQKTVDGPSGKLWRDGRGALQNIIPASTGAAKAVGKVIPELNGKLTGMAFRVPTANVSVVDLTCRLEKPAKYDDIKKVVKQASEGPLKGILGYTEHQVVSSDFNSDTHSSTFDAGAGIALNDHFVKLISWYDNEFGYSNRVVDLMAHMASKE

Bcl-2-related protein A1 [3] = target: T2, Bcl-2-related protein A1 (Mus musculus, UniProt Q07440); test: small-molecule antagonists of Bfl-1/BH3 interaction – biochemical, TR-FRET, mouse Bfl-1, confirmation (AID 621);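 note: TR-FRET binding of GST-Bfl-1 to FITC-labelled Bid peptide via terbium antibody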
T2 sequence (Q07440 whole entry): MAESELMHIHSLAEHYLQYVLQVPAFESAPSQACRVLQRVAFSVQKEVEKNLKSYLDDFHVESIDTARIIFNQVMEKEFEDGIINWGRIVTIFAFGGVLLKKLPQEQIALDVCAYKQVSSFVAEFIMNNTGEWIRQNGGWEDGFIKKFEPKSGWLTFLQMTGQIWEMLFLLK

Bcl-2-related protein A1 [4] = target: T2, Bcl-2-related protein A1; test: Bfl-1 binding inhibitors, SAR follow-up, biochemical, fluorescence polarization (AID 1070)
[5] = target: T3, Replicative DNA helicase DnaB (Mycobacterium tuberculosis, UniProt P9WMR3); test: DnaB intein splicing inhibitors, dose response, biochemical, cell-free fluorescence (AID 449749); format: functional
T3 sequence (P9WMR3 whole entry): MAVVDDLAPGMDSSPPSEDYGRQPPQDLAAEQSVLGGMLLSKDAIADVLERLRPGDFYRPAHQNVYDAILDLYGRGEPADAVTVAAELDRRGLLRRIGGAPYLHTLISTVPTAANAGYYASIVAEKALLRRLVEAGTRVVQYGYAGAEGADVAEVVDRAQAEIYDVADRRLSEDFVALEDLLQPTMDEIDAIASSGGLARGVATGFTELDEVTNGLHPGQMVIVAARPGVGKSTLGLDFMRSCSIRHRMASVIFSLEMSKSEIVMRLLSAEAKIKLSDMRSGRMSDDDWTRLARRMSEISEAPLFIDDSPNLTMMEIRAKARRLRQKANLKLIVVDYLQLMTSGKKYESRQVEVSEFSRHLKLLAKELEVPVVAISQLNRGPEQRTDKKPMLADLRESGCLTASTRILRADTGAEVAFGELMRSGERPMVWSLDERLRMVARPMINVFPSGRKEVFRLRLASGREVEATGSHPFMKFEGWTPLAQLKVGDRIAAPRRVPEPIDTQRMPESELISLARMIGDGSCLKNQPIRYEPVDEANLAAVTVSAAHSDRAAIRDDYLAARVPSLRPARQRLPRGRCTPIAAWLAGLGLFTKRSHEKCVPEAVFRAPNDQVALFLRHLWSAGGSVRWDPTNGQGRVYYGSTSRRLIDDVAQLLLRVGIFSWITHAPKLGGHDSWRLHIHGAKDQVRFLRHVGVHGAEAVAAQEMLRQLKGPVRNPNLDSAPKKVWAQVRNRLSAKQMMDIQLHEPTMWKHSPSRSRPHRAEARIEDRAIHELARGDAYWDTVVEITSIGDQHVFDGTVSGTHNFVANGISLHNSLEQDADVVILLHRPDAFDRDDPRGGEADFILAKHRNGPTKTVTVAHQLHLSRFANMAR

Protein RecA = target: T4, Protein RecA (Mycobacterium tuberculosis, UniProt P9WHJ3); test: Fluorescence Cell-Free Homogeneous Dose Retest to Identify Inhibitors of RecA-Intein Splicing Activity. [Related pubchem assays (depositor defined):AID2097, AID2223, AID489010, AID492950]; format: functional
T4 sequence (P9WHJ3 whole entry): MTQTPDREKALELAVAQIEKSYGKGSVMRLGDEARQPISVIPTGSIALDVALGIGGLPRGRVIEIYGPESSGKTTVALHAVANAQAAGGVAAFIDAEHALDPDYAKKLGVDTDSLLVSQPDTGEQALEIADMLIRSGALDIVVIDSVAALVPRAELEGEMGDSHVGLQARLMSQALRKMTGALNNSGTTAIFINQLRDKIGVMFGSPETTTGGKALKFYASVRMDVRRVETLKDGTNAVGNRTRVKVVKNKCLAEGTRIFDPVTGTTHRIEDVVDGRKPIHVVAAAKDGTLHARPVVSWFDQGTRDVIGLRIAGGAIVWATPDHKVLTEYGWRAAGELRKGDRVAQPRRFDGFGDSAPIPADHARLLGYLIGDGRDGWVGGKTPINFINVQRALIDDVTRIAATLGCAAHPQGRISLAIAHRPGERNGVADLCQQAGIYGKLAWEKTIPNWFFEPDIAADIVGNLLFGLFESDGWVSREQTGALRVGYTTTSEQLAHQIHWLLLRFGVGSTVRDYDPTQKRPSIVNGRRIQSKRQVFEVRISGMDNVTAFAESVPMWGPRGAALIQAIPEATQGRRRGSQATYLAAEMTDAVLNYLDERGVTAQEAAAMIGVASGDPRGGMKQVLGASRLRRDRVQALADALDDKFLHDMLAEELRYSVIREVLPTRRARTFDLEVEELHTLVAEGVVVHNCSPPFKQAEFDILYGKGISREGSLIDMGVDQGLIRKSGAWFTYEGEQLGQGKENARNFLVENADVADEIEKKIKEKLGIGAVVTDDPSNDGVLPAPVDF

Genome polyprotein = Genome polyprotein (dengue virus type 2, UniProt P29990); test: flavivirus cap methylation enzyme inhibition – biochemical, confirmation dose response, primary screen (AID 588689); format: functional
Genome polyprotein, sequence (P29990 2492-3391 limits assumed): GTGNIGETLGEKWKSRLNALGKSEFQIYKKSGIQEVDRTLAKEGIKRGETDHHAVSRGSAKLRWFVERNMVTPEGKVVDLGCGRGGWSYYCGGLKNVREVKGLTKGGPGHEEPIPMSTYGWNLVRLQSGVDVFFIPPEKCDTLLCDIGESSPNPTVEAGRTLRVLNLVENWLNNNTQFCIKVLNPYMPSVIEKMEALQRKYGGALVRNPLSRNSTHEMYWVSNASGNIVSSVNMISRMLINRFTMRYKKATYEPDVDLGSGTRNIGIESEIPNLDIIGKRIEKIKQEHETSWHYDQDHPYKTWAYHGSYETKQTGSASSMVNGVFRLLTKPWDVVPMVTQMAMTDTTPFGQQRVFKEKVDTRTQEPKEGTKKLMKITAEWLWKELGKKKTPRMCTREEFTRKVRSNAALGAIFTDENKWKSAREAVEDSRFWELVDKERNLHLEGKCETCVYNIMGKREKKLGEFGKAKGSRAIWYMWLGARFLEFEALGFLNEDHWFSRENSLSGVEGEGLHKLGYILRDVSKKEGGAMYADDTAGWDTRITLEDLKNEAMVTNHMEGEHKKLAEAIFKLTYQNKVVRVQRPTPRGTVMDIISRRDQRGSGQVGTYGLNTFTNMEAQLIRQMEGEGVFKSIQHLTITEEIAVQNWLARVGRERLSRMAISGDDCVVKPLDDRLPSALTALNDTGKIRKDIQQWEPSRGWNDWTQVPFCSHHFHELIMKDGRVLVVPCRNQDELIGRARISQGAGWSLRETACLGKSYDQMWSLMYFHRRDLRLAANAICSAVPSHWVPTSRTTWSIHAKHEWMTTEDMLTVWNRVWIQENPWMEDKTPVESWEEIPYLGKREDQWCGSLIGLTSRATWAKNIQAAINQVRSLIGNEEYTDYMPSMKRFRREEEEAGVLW

SUMO-activating enzyme [6] = target: T5, SUMO-activating enzyme (Homo sapiens, UniProt Q9UBT2); test: blockers of UBC9-mediated SUMO conjugation – biochemical, AlphaScreen, SUMOylation inhibitor project, confirmation (AID 2018); format: functional
T5 sequence (Q9UBE0 whole entry): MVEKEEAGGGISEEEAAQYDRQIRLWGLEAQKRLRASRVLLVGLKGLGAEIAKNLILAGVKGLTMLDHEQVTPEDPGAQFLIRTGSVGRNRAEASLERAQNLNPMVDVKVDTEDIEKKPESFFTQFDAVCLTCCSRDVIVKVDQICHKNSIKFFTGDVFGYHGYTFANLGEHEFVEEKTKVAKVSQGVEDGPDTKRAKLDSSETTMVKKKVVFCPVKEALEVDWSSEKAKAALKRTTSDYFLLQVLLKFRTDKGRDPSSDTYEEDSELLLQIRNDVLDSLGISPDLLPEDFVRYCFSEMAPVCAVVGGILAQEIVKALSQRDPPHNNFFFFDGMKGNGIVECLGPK
T5 sequence (Q9UBT2 whole entry): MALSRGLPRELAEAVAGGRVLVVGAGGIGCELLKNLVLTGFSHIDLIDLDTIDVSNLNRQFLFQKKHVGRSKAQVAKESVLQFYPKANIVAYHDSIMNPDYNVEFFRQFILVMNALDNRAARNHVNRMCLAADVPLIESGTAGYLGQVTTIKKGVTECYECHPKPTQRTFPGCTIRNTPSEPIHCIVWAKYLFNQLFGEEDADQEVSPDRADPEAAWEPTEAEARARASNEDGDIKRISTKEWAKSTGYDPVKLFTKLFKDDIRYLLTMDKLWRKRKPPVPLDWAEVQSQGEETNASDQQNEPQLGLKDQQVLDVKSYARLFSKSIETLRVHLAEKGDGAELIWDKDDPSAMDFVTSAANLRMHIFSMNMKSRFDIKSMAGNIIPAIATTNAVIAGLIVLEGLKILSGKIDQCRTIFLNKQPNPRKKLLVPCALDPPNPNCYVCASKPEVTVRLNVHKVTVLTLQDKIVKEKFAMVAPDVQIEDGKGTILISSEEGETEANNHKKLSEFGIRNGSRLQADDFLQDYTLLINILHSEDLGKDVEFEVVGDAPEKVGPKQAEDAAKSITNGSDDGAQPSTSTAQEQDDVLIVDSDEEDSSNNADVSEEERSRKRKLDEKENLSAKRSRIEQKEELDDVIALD

SUMO-activating enzyme [7] = target: T5, SUMO-activating enzyme; test: blockers of SAE1/SAE2–UBC9 SUMO transfer – biochemical, HTRF, uHTS, primary screen (AID 2006); format: protein-complex assay
[8] = target: Induced myeloid leukemia cell differentiation protein Mcl-1 (Homo sapiens, UniProt Q07820); test: blockers of MCL1 binding to BIM peptide – biochemical, fluorescence polarization, BIM-BH3 peptide, 1536-well, dose response (AID 2217)
Induced myeloid leukemia cell differentiation protein Mcl-1, sequence (Q07820 whole entry): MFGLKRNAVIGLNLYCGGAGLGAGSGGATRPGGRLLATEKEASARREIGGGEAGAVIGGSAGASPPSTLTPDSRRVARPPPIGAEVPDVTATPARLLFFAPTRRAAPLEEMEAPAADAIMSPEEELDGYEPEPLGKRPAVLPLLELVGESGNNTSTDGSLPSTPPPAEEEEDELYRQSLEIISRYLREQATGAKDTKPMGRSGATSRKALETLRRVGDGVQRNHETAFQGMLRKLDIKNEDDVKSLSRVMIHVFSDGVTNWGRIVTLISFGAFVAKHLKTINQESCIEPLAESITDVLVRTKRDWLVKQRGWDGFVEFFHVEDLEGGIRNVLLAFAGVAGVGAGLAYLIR

Bcl-2-like protein 1 = Bcl-2-like protein 1 (Homo sapiens, UniProt Q07817); test: blockers of BCLXL peptide binding – biochemical, fluorescence polarization, 1536-well, selectivity assay for MCL1 inhibitor project, dose response (AID 2218)
Bcl-2-like protein 1, sequence (Q07817 whole entry): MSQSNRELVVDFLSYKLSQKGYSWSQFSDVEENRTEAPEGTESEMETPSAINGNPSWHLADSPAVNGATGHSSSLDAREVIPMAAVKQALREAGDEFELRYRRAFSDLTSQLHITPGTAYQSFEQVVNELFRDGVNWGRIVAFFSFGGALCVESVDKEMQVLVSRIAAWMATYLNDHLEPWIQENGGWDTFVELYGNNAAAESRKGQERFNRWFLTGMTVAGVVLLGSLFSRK

[9] = target: T6, Neuropeptide Y receptor type 1 (Homo sapiens, UniProt P25929); format: functional;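 note: HEK293 cells with a CNG channel challenged with NPY then isoproterenol; potency as antagonist that reverses NPY suppression of cAMP signal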
T6 sequence (P25929 whole entry): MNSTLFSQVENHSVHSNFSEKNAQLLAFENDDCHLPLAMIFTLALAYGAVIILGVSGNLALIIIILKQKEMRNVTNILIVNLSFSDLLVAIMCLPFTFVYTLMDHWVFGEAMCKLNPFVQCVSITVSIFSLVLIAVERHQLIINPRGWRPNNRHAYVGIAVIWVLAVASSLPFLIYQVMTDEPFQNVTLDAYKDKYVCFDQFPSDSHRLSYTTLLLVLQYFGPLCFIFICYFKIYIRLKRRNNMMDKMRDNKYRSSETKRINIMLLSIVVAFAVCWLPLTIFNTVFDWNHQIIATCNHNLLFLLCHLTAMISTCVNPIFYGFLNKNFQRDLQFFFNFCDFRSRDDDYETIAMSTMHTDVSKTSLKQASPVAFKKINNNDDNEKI

[10] = target: T7, Neuropeptide Y receptor type 2 (Homo sapiens, UniProt P49146); format: functional, cell-based;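 note: HEK293 cells expressing the receptor and a CNG channel; stimulus was NPY near EC95 followed by isoproterenol to raise cAMP; antagonist potency measured as restoring cAMP signal that NPY suppresses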
T7 sequence (P49146 whole entry): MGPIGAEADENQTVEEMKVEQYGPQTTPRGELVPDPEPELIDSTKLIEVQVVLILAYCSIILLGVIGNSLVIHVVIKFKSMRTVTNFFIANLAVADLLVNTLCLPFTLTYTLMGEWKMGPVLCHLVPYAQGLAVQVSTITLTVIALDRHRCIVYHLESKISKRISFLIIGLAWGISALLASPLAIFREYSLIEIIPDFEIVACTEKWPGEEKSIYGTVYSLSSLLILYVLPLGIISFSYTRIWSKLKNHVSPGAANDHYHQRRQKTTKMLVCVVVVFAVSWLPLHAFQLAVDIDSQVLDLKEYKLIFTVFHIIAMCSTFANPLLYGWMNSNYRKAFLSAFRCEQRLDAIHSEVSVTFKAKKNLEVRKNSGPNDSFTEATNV

[11] = Luminescence Cell-Based Dose Response to Identify Activators of 5'UTR Stem-Loop Driven Prion Protein mRNA Translation in H4-C Neuroglioblastoma Cells. [Related pubchem assays: 1829 (Project Summary), 1814 (Primary HTS)]; format: functional
[12] = Luminescence Cell-Based Dose Response HTS to Identify Activators of Luciferase Translation or Activity in H4 […] Cells. [Related pubchem assays: 1829 (Project Summary), 1814 (Primary HTS)]; format: functional
H4 = test: Luminescence Cell-Based Dose Response HTS to Identify Activators of 5'UTR Stem-Loop Driven Prion Protein mRNA Translation in H4 Neuroglioblastoma Cells. [Related pubchem assays: 1829 (Project Summary), 1814 (Primary HTS)]; format: functional; conditions: Homo sapiens
[13] = Luminescence Cell-Based Dose Response to Identify Activators of Luciferase Translation or Activity in H4-C Neuroglioblastoma Cells. [Related pubchem assays: 1829 (Project Summary), 1814 (Primary HTS)]; format: functional
[14] = Luminescence Cell-Based Dose Confirmation to Identify Activators of 5'UTR Stem-Loop Driven Alpha-Synuclein mRNA Translation in H4 Neuroglioblastoma Cells. [Related pubchem assays: 1829 (Project Summary), 1814 (Primary HTS)]; format: functional
[15] = Trypanosoma cruzi growth suppression in host cells – NIH3T3 host cells, beta-gal luminescence, confirmation (AID 2044); format: functional, cell-based;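 note: intracellular parasites grown in NIH/3T3 mouse fibroblasts as host cells; luminescent beta-galactosidase reporter signal from transgenic T. cruzi replicating inside host cells; inhibitors lower the luminescence signal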
[16] = NIH3T3 cell viability loss – ATP luminescence, mouse fibroblasts, counter-screen, dose response (AID 2010); format: functional, cell-based;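 note: cells exposed to compound for about 90 hours before reading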
Estrogen receptor beta [17] = target: T8, Estrogen receptor beta (Homo sapiens, UniProt Q92731);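 note: recombinant ER-beta bound to coactivator SRC1 peptide in presence of estradiol agonist; inhibitors block coactivator peptide binding and lower the FRET signal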
T8 sequence (Q92731 whole entry): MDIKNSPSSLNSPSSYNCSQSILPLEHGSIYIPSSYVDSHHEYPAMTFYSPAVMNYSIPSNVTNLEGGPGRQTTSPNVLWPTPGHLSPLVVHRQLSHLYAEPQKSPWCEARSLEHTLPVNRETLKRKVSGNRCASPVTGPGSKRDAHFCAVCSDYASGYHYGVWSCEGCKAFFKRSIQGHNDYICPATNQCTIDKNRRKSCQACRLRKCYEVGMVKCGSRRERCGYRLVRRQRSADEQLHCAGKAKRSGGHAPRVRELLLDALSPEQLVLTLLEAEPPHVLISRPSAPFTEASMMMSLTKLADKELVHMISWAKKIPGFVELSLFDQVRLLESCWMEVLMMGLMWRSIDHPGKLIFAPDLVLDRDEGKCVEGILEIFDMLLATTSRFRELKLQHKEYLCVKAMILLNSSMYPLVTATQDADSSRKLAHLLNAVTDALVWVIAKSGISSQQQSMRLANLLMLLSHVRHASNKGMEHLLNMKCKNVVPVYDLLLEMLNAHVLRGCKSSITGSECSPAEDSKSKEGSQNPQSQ

Estrogen receptor beta [18] = target: T8, Estrogen receptor beta; test: blockers of SRC-3 recruitment to ERβ – biochemical, ELISA, streptavidin-HRP readout, orthogonal assay, confirmation (AID 1060)

SMILES: Cc1cc(C)c(C(=O)Nc2ccc(Br)c(C(F)(F)F)c2)c(C)c1
- EC50 [1]: 2.41 µM (active)
- CC50 (Vero): 47.4 µM (active)
- EC50 (Streptokinase A): 3.29 µM (active)
- EC50 (Streptococcus): 3.73 µM (active)

SMILES: O=C1C(Cl)=C(N2CCOCC2)C(=O)N1c1cccc(Cl)c1
- IC50 [2]: > 10 µM (inconclusive)
- IC50 (Bcl-2-related protein A1 [3]): 6.37 µM (active)
- IC50 (Bcl-2-related protein A1 [4]): 8.47 µM (active)
- AC50 [5]: 4.14 µM (active)
- EC50 (Protein RecA): 1.46 µM (active)
- IC50 (Genome polyprotein): 13.6 µM (active)

SMILES: O=C1NC(=O)N(Cc2ccco2)C(=O)/C1=C/c1ccc(-c2cccc([N+](=O)[O-])c2)o1
- IC50 (SUMO-activating enzyme [6]): 6.08 µM (active)
- IC50 (SUMO-activating enzyme [7]): 22.4 µM (active)
- IC50 [8]: 9.6 µM (active)
- IC50 (Bcl-2-like protein 1): 17.6 µM (not active)

SMILES: Clc1ccc(OCCSc2nnnn2C2CCCCC2)cc1
- IC50 [9]: 9.04 µM (active)
- IC50 [10]: 14.2 µM (not active)

SMILES: COc1cccc(-c2nc(O)c3c4c(sc3n2)CCCCC4)c1
- EC50 [11]: 0.37 µM (active)
- EC50 [12]: < 0.1 µM (active)
- EC50 (H4): 11.6 µM (active)
- EC50 [13]: 1.36 µM (active)
- EC50 [14]: 0.303 µM (active)

SMILES: N#Cc1ccc(-c2cccnc2)nc1SCc1ccc(Cl)c(Cl)c1
- IC50 [9]: 5.69 µM (active)
- IC50 [10]: 5.19 µM (active)

SMILES: Cc1ccccc1OCCNc1cc(N2CCN(CCO)CC2)ccc1[N+](=O)[O-]
- CC50 (Vero): 19.4 µM (active)

SMILES: COc1cccc(CNC(=O)CCC2CCCN(C/C=C/c3ccccc3OC)C2)c1 (stereo not given)
- EC50 [15]: < 0.1 µM (active)
- EC50 [16]: > 60 µM (not active)
- EC50 (cells): 0.05 µM (active)

SMILES: CCOC(=O)C1=C(C)NC(=O)NC1c1ccco1 (stereo not given)
- IC50 (Estrogen receptor beta [17]): 9.28 µM (active)
- IC50 (Estrogen receptor beta [18]): < 0.023 µM (not active)

SMILES: O=C(CNc1cccc2ccccc12)N/N=C/c1ccc(C(=O)O)cc1
- IC50 [8]: 26.6 µM (not active)
- IC50 (Bcl-2-like protein 1): > 109 µM (not active)

SMILES: Cc1ccc(-c2c(C)s/c(=N\C(=O)c3ccco3)n2C)cc1
- EC50 [11]: 0.469 µM (active)
- EC50 [12]: < 0.1 µM (active)
- EC50 [13]: 0.354 µM (active)
- EC50 [14]: > 12 µM (not active)
